The text below walks through data of patent US6555548B2, “Compounds for treating fibromyalgia and chronic fatigue syndrome” (Pharmacia & Upjohn Company, priority 2000, dated 2003).

The structures appear in SMILES notation.

As usually defined, the melting point is the temperature of the solid-liquid transition.

In turn, `CN[C@@H]1Cc2cccc3[nH]c(=S)n(c23)C1` registered a melting point of 210 to 213 °C.
`CN[C@@H]1Cc2cccc3[nH]c(=S)n(c23)C1.O=C(O)/C=C\C(=O)O`: the melting point fell in the range of 195 to 196 °C.
